Results taken from patent US20260256827A1, “Methods for treating lower back pain with hyaluronic acid” (priority 2023, published 2026).

Experiments:
Format in all cases: in vivo, human
[1] = test system: chronic lower back pain with enthesopathy; experiment: Example 3: HA injections, patient, pain severity on visual analog numerical rating scale; details: tramadol and cyclobenzaprine together, before HA
Procedure: (§1) In the Examples, unless otherwise specified, pain severity was assessed using a visual analog numerical rating scale ranging from 0 (no pain) to 10 (worst pain possible), and hyaluronic acid (HA) injections (Hyalgan™, 10 mg/mL, MW: 500,000 to 730,000 Daltons in 2 mL pre-filled syringes) were administered using a 30 gauge, ½″ needle.

chronic low back pain = experiment: Example 4: Hyalgan injections, person, pain severity; details: before Hyalgan
Procedure: as §1
Hyaluronic acid injections were administered in the form of Hyalgan ([…]) along the lateral margin of the left PSIS (two injections; 1 mL each). […] […] received subsequent injections on this visit: again two injections of 1 mL each along the lateral margins of […] left PSIS.

[2] = test system: chronic, bilateral lower back pain; experiment: Example 2: HA injections, patient, pain severity on visual analog numerical rating scale; details: 75 mg bid from Nov. 9, 2023; recurrence reported Jan. 8, 2024
Procedure: as §1
On Oct. 5, 2023, a patient reported chronic, bilateral lower back pain, and more recent onset of pain in their feet that slowly spread to their lower leg, but mostly resides on the plantar surface of their feet. The lower back pain severity was 7/10 (between severe and very severe) at rest, and up to 9/10 (between very severe and worse pain possible) after standing all day.
On Oct. […] The injection locations were determined by findings of focal tenderness of the palpated sites illustrated in FIG. 1.
On Oct. 12, 2023, patient reported maximum lower back pain severity of 5-6/10 (severe). […] These injection locations were again determined by findings of focal tenderness of palpated sites illustrated in FIG. 1.
On Jan. […] These injection locations were again determined by findings of focal tenderness of palpated sites illustrated in FIG. 1.
On Mar. […] These injection locations were again determined by findings of focal tenderness of palpated sites illustrated in FIG. 1.

[3] = test system: peripheral neuropathy foot pain; experiment: Example 2 patient: treatment of peripheral neuropathy / foot pain; details: 75 mg bid from Nov. 9, 2023
Procedure: Beginning on Oct. 2, 2023, the patient was treated for peripheral neuropathy lidocaine/prilocaine 2.5% cream applied to their feet bilaterally. […] 8, 2024.

SMILES: CN(C)CCC=C1c2ccccc2C=Cc2ccccc21 [cyclobenzaprine]
- benefit of ongoing treatment for lower back pain [1]: helped only marginally
- benefit of prior treatment for low back pain (chronic low back pain): without benefit

SMILES: CC(C)Cc1ccc(C(C)C(=O)O)cc1 (stereo not drawn) [ibuprofen]
- benefit of prior treatment for low back pain (chronic low back pain): without benefit

SMILES: CC(C)C[C@H](CN)CC(=O)O [pregabalin]
- effect on recurrence of lower back pain [2]: did not prevent the recurrence
- effect on foot pain [3]: helpful

SMILES: COc1cccc(C2(O)CCCCC2CN(C)C)c1 (stereo not drawn) [tramadol]
- benefit of ongoing treatment for lower back pain [1]: helped only marginally
